Experimental data reported in US20190202840A1, “SALTS OF (S)-7-(1-(9H-PURIN-6-YLAMINO)ETHYL)-6-(3-FLUOROPHENYL)-3-METHYL-5H-THIAZOLO[3,2-A]PYRIMIDIN-5-ONE” (Incyte Corporation, priority 2015, published 2019).

Key:
human JAK2 = molecular target: T1, human JAK2 (Homo sapiens, UniProt O60674); assay: In vitro JAK kinase assay (Example G, HTRF), JAK2; type: biochemical; conditions: ratio of IC50s JAK2 over JAK1, 1 mM ATP
T1 construct: JAK2 (a.a. 828-1132); made in house; host or cells: insect cells (baculovirus)
T1 sequence (O60674 828-1132): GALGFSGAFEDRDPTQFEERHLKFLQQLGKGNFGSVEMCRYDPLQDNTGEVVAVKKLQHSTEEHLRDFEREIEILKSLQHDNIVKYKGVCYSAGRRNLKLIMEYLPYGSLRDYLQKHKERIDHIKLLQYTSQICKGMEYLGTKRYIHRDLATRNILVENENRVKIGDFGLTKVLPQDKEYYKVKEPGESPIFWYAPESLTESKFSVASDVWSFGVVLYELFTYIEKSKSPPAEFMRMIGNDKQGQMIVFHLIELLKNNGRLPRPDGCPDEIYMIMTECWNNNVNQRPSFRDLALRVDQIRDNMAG

human JAK1 = molecular target: T2, human JAK1 (Homo sapiens, UniProt P23458); assay: In vitro JAK kinase assay (Example G, HTRF), JAK1; type: biochemical; conditions: 1 mM ATP
T2 construct: human JAK1 (a.a. 837-1142); made in house; host or cells: insect cells (baculovirus)
T2 sequence (P23458 849-1154): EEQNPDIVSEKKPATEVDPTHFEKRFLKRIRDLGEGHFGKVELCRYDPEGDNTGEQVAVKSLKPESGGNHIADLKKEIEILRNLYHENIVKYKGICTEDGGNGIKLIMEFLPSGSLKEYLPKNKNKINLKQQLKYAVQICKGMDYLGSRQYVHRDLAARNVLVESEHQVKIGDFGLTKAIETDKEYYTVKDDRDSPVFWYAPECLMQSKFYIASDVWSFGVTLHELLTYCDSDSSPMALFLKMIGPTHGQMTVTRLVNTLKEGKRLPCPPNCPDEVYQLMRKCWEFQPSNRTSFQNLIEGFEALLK

Compound | JAK2/JAK1 (human JAK2) | IC50 (human JAK1) [nM]
N#CCC(CN1CCN(C(=O)c2ccc(C#N)cc2F)CC1)n1ccc(-c2ncnc3[nH]ccc23)c1 (centres unmarked) [Compound 6, 4-[(4-{3-cyano-2-[3-(7H-pyrrolo[2,3-d]pyrimidin-4-yl)-1H-pyrrol-1-yl]propyl}piperazin-1-yl)carbonyl]-3-fluorobenzonitrile] | >10 | < 10
N#CCC(C1CCN(c2cccc(Cl)n2)C1)n1cc(-c2ncnc3[nH]ccc23)cn1 (single isomer, unassigned) [Compound 3, 3-[1-(6-chloropyridin-2-yl)pyrrolidin-3-yl]-3-[4-(7H-pyrrolo[2,3-d]pyrimidin-4-yl)-1H-pyrazol-1-yl]propanenitrile] | >10 | < 10
N#CCC(CN1CCN(C(=O)c2ccc(C#N)cc2F)CC1)n1cc(-c2ncnc3[nH]ccc23)cn1 (centres unmarked) [Compound 5, 4-[(4-{3-cyano-2-[4-(7H-pyrrolo[2,3-d]pyrimidin-4-yl)-1H-pyrazol-1-yl]propyl}piperazin-1-yl)carbonyl]-3-fluorobenzonitrile] | >10 | < 10
N#CCC1(n2cc(-c3ncnc4[nH]ccc34)cn2)CN(C2CCN(C(=O)c3ccnc(C(F)(F)F)n3)CC2)C1 [Compound 9, [3-[4-(7H-pyrrolo[2,3-d]pyrimidin-4-yl)-1H-pyrazol-1-yl]-1-(1-{[2-(trifluoromethyl)pyrimidin-4-yl]carbonyl}piperidin-4-yl)azetidin-3-yl]acetonitrile] | >10 | < 10
N#CCC1(n2cc(-c3ncnc4[nH]ccc34)cn2)CN(C2CCN(C(=O)c3ccnc(C(F)(F)F)c3F)CC2)C1 [Compound 7, {1-{1-[3-Fluoro-2-(trifluoromethyl)isonicotinoyl]piperidin-4-yl}-3-[4-(7H-pyrrolo[2,3-d]pyrimidin-4-yl)-1H-pyrazol-1-yl]azetidin-3-yl}acetonitrile] | >10 | < 10
C[C@@H](O)c1nc2cnc3ccsc3c2n1[C@H]1CC[C@H](CC#N)OC1 [Compound 1, ((2R,5S)-5-{2-[(1R)-1-hydroxyethyl]-1H-imidazo[4,5-d]thieno[3,2-b]pyridin-1-yl}tetrahydro-2H-pyran-2-yl)acetonitrile] | >10 | < 100
N#CCC1(n2cc(-c3ncnc4[nH]ccc34)cn2)CN(C2CCN(C(=O)Nc3ccc(F)cc3C(F)(F)F)CC2)C1 [Compound 8, 4-{3-(Cyanomethyl)-3-[4-(7H-pyrrolo[2,3-d]pyrimidin-4-yl)-1H-pyrazol-1-yl]azetidin-1-yl}-N-[4-fluoro-2-(trifluoromethyl)phenyl]piperidine-1-carboxamide] | >10 | < 10
C[C@H](NC(=O)c1cc(F)c(N2CC(CC#N)(n3cc(-c4ncnc5[nH]ccc45)cn3)C2)cc1F)C(F)(F)F [Compound 16, 4-{3-(cyanomethyl)-3-[4-(7H-pyrrolo[2,3-d]pyrimidin-4-yl)-1H-pyrazol-1-yl]azetidin-1-yl}-2,5-difluoro-N-[(1S)-2,2,2-trifluoro-1-methylethyl]benzamide] | >10 | < 10
N#CCC(C1CCN(c2nc3cccnc3o2)C1)n1cc(-c2ncnc3[nH]ccc23)cn1 (centres unmarked) [Compound 4, 3-(1-[1,3]oxazolo[5,4-b]pyridin-2-ylpyrrolidin-3-yl)-3-[4-(7H-pyrrolo[2,3-d]pyrimidin-4-yl)-1H-pyrazol-1-yl]propanenitrile] | >10 | < 10

Next, values leading:

JAK2/JAK1 (human JAK2) | IC50 (human JAK1) [nM] | Compound
>10 | < 10 | N#CC[C@]1(n2cc(-c3ncnc4[nH]ccc34)cn2)C[C@H](N2CCC(Oc3cc(CN4CCC[C@H]4CO)cc(C(F)(F)F)n3)CC2)C1 [Compound 12, {trans-3-(4-{[4-{[(2S)-2-(hydroxymethyl)pyrrolidin-1-yl]methyl}-6-(trifluoromethyl)pyridin-2-yl]oxy}piperidin-1-yl)-1-[4-(7H-pyrrolo[2,3-d]pyrimidin-4-yl)-1H-pyrazol-1-yl]cyclobutyl}acetonitrile]
>10 | < 10 | N#CC[C@]1(n2cc(-c3ncnc4[nH]ccc34)cn2)C[C@H](N2CCC(Oc3cc(CCO)cc(C(F)(F)F)n3)CC2)C1 [Compound 26, {trans-3-(4-{[4-(2-hydroxyethyl)-6-(trifluoromethyl)pyridin-2-yl]oxy}piperidin-1-yl)-1-[4-(7H-pyrrolo[2,3-d]pyrimidin-4-yl)-1H-pyrazol-1-yl]cyclobutyl}acetonitrile]
>10 | < 10 | CC(C)(O)c1cc(O[C@H]2CC[C@@H](N3CC(CC#N)(n4cc(-c5ncnc6[nH]ccc56)cn4)C3)CC2)nc(C(F)(F)F)c1 [Compound 20, {1-(cis-4-{[4-(1-hydroxy-1-methylethyl)-6-(trifluoromethyl)pyridin-2-yl]oxy}cyclohexyl)-3-[4-(7H-pyrrolo[2,3-d]pyrimidin-4-yl)-1H-pyrazol-1-yl]azetidin-3-yl}acetonitrile]
>10 | < 10 | N#CCC1(n2cc(-c3ncnc4[nH]ccc34)cn2)CN([C@H]2CC[C@@H](Oc3cc(CN4CC[C@@H](O)C4)cc(C(F)(F)F)n3)CC2)C1 [Compound 21, {1-(cis-4-{[4-{[(3R)-3-hydroxypyrrolidin-1-yl]methyl}-6-(trifluoromethyl)pyridin-2-yl]oxy}cyclohexyl)-3-[4-(7H-pyrrolo[2,3-d]pyrimidin-4-yl)-1H-pyrazol-1-yl]azetidin-3-yl}acetonitrile]
>10 | < 10 | N#CC[C@]1(n2cc(-c3ncnc4[nH]ccc34)cn2)C[C@H](N2CCC(Oc3cc(CN4CCC[C@@H]4CO)cc(C(F)(F)F)n3)CC2)C1 [Compound 13, {trans-3-(4-{[4-{[(2R)-2-(hydroxymethyl)pyrrolidin-1-yl]methyl}-6-(trifluoromethyl)pyridin-2-yl]oxy}piperidin-1-yl)-1-[4-(7H-pyrrolo[2,3-d]pyrimidin-4-yl)-1H-pyrazol-1-yl]cyclobutyl}acetonitrile]
>10 | < 10 | N#CCC1(n2cc(-c3ncnc4[nH]ccc34)cn2)CN([C@H]2CC[C@@H](Oc3cc(CN4CC[C@H](O)C4)cc(C(F)(F)F)n3)CC2)C1 [Compound 22, {1-(cis-4-{[4-{[(3S)-3-hydroxypyrrolidin-1-yl]methyl}-6-(trifluoromethyl)pyridin-2-yl]oxy}cyclohexyl)-3-[4-(7H-pyrrolo[2,3-d]pyrimidin-4-yl)-1H-pyrazol-1-yl]azetidin-3-yl}acetonitrile]
>10 | < 10 | C[C@@H](O)CNCc1cc(OC2CCN([C@H]3C[C@](CC#N)(n4cc(-c5ncnc6[nH]ccc56)cn4)C3)CC2)nc(C(F)(F)F)c1 [Compound 24, {trans-3-(4-{[4-({[(2R)-2-hydroxypropyl]amino}methyl)-6-(trifluoromethyl)pyridin-2-yl]oxy}piperidin-1-yl)1-[4-(7H-pyrrolo[2,3-d]pyrimidin-4-yl)-1H-pyrazol-1-yl]cyclobutyl}acetonitrile]
>10 | < 10 | C[C@H](O)CNCc1cc(OC2CCN([C@H]3C[C@](CC#N)(n4cc(-c5ncnc6[nH]ccc56)cn4)C3)CC2)nc(C(F)(F)F)c1 [Compound 25, {trans-3-(4-{[4-({[(2S)-2-hydroxypropyl]amino}methyl)-6-(trifluoromethyl)pyridin-2-yl]oxy}piperidin-1-yl)-1-[4-(7H-pyrrolo[2,3-d]pyrimidin-4-yl)-1H-pyrazol-1-yl]cyclobutyl}acetonitrile]
>10 | < 10 | N#CCC1(n2cc(-c3ncnc4[nH]ccc34)cn2)CN([C@H]2CC[C@@H](Oc3cc(CCO)nc(C(F)(F)F)n3)CC2)C1 [Compound 18, {1-(cis-4-{[6-(2-hydroxyethyl)-2-(trifluoromethyl)pyrimidin-4-yl]oxy}cyclohexyl)-3-[4-(7H-pyrrolo[2,3-d]pyrimidin-4-yl)-1H-pyrazol-1-yl]azetidin-3-yl}acetonitrile]
>10 | < 10 | C[C@@H](CO)NCc1cc(OC2CCN([C@H]3C[C@](CC#N)(n4cc(-c5ncnc6[nH]ccc56)cn4)C3)CC2)nc(C(F)(F)F)c1 [Compound 23, {trans-3-(4-{[4-({[(1S)-2-hydroxy-1-methylethyl]amino}methyl)-6-(trifluoromethyl)pyridin-2-yl]oxy}piperidin-1-yl)-1-[4-(7H-pyrrolo[2,3-d]pyrimidin-4-yl)-1H-pyrazol-1-yl]cyclobutyl}acetonitrile]
>10 | < 10 | N#CC[C@]1(n2cc(-c3ncnc4[nH]ccc34)cn2)C[C@H](N2CCN(C(=O)c3ccnc(C(F)(F)F)n3)CC2)C1 [Compound 10, [trans-1-[4-(7H-pyrrolo[2,3-d]pyrimidin-4-yl)-1H-pyrazol-1-yl]-3-(4-{[2-(trifluoromethyl)pyrimidin-4-yl]carbonyl}piperazin-1-yl)cyclobutyl]acetonitrile]
>10 | < 10 | CCNCc1cc(O[C@H]2CC[C@@H](N3CC(CC#N)(n4cc(-c5ncnc6[nH]ccc56)cn4)C3)CC2)nc(C(F)(F)F)c1 [Compound 19, {1-(cis-4-{[4-[(ethylamino)methyl]-6-(trifluoromethyl)pyridin-2-yl]oxy}cyclohexyl)-3-[4-(7H-pyrrolo[2,3-d]pyrimidin-4-yl)-1H-pyrazol-1-yl]azetidin-3-yl}acetonitrile]
>10 | < 10 | N#CC[C@]1(n2cc(-c3ncnc4[nH]ccc34)cn2)C[C@H](N2CCC(Oc3cc(CN4CC(O)C4)cc(C(F)(F)F)n3)CC2)C1 [Compound 11, {trans-3-(4-{[4-[(3-hydroxyazetidin-1-yl)methyl]-6-(trifluoromethyl)pyridin-2-yl]oxy}piperidin-1-yl)-1-[4-(7H-pyrrolo[2,3-d]pyrimidin-4-yl)-1H-pyrazol-1-yl]cyclobutyl}acetonitrile]
